Among the test systems are BT-549; T47D; SNB-78; XF498; KM-20L2; M19-MEL; DMS-114; HOP-18.
What all share (assay): NCI anticancer screen, dose series, 48 h

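Protocol summary: plate cells (96-well), add compound at 5 concentrations, incubate 48 h, interpolate endpoints linearly. Abbreviation: GI50, concentration required for 50% inhibition of growth.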 Active and inactive are the calls of the source. Cut-off read from the data, not from the text of the source: active = GI50 up to about 1.1 µM and inactive = higher. Where a SMILES comes first, the peptide text is derived from it. The star is where a group is joined. Boc = CC(C)(C)OC(=O)*

Regarding `Cc1cc2c(c(S(=O)(=O)c3ccc(Cl)cc3[N+](=O)[O-])c1)NCCC2`, the GI50 is > 100 µM (inactive) with BT-549 and 1.84 µM (inactive) in the assay on T47D.

With `Nc1ccccc1/N=C/c1cc2cc([N+](=O)[O-])ccc2s1`, the GI50 was 12.5 µM (inactive) with BT-549 and 4.13 µM (inactive) in the assay on T47D.

For `CC(C)c1nc(Cl)c(Cl)c(Cl)n1`, the values for the GI50 in the assay on BT-549 and with T47D were 0.621 µM (active) and 4.14 µM (inactive), respectively.

As for `COc1cc2c(c(OC)c1)C(C)=NC(C)C2` (configuration not stated), the GI50 with BT-549 and in the assay with T47D was > 100 µM (inactive) each time.

With `NC1CC(=O)c2cc(Br)sc21` (configuration not stated), the GI50 in the assay on BT-549 and in the assay with T47D was > 100 µM (inactive) each time.

For the molecule `CC(C)=NN/C(=N\c1ccc(Cl)cc1)NS(=O)(=O)c1cc2ccccc2s1`, the GI50 with BT-549 is 41.9 µM (inactive); in the assay with T47D, 21.5 µM (inactive).

In the case of `Nc1ccc(C(=O)N/C(=C\c2cccc([N+](=O)[O-])c2)c2nc3ccccc3[nH]2)cc1`, the GI50 with SNB-78 is 57.3 µM (inactive); in the assay on XF498, 23.5 µM (inactive); in the assay with KM-20L2, > 87.1 µM (inactive); in the assay with M19-MEL it was > 100 µM (inactive); in the assay with DMS-114 it was 29.4 µM (inactive).

Consider `CC12CP(=O)(c3ccccc3)CC1c1ccccc1C2c1ccccc1` (configuration not stated), for which the GI50 is > 10 µM (inactive) in the assay on BT-549 and 16.4 µM (inactive) in the assay on T47D.

For the molecule `CCCc1c(O)c(=O)c2c(OC)cc(OC)c3c4c(OC)cc(OC)c5c(=O)c(O)c(CCC)c(c1c23)c54`, the GI50 with BT-549 is 0.34 µM (active); in the assay on T47D, 1.33 µM (inactive).

Consider `C(=N\N=C1NCCCN1)/c1ccc2ccccc2c1`, for which the results for the GI50 in the assay with BT-549 and in the assay on T47D were 17.4 µM (inactive) and 10.4 µM (inactive), respectively.

On to `CCCC/C=C/C/C=C/CCCCCCCCC(=O)OCC1CCCN2CCCCC12` (configuration not stated), for which the GI50 with BT-549 was 15.6 µM (inactive); in the assay on T47D, 12.8 µM (inactive).

Consider `O=c1c(Cl)nsnc1Cl`, for which the GI50 in the assay on T47D is 3.08 µM (inactive).

Turning to `O=C(/C=C1\Nc2ccccc2N=C1NC12CC3CC(CC(C3)C1)C2)c1ccc(Br)cc1`, the GI50 with BT-549 and with T47D was > 10 µM (inactive) each time.

For `O=C(/C=C\c1cccc2ccccc12)c1ccc(F)cc1`, the GI50 in the assay on SNB-78 is 19.8 µM (inactive); with HOP-18 it was 14.3 µM (inactive); in the assay on KM-20L2, 16.6 µM (inactive); in the assay with M19-MEL it was 19.6 µM (inactive); in the assay on DMS-114 it was 14.4 µM (inactive).

Turning to `COC(=O)c1ccc(C)cc1CC1Cc2c(C)cccc2C1=O` (configuration not stated), the GI50 in the assay on BT-549 is 4.99 µM (inactive); in the assay on T47D it was 7.93 µM (inactive).

`C1=N\CCNCC/N=C\c2ccc(cc2)OCc2cccc(n2)COc2ccc/1cc2`: the GI50 is 66.4 µM (inactive) with BT-549 and > 100 µM (inactive) with T47D.

As for `COc1ccc(/C=N/Nc2nnc3c(n2)c2ccccc2c2nn(-c4ccccc4Cl)nc23)cc1`, the GI50 with BT-549 and with T47D was > 100 µM (inactive) each time.

For the molecule `CC(C)COC(c1ccc2c(c1)OCO2)C(C)Br` (configuration not stated), the GI50 in the assay with BT-549 was 35.5 µM (inactive).

With `Cc1ccc(/C=C2\CCCc3ccccc3C2=O)cc1`, in the assay on BT-549, the GI50 was 10.1 µM (inactive).

Consider `CN(C)CC1CCCC(CN2CCCCC2)C1=O` (configuration not stated), for which the GI50 with SNB-78 is 7.71 µM (inactive); in the assay with HOP-18, 2.02 µM (inactive); in the assay on KM-20L2, 19.6 µM (inactive); in the assay on BT-549 it was 15.2 µM (inactive); in the assay with M19-MEL, 18.8 µM (inactive); with T47D it was 2.19 µM (inactive).

On to `O=C1NC(Nc2cccc(Cl)c2)=N/C1=C\c1ccc(Cl)c(Cl)c1`, for which the GI50 with BT-549 was 12.4 µM (inactive); in the assay on T47D, 3.52 µM (inactive).

In the case of `O=C(O)C1Cc2ccccc2OC1=O` (configuration not stated), the GI50 in the assay with BT-549 and in the assay with T47D was > 100 µM (inactive) in each case.

`O=C1C(=C2SC(c3ccccc3)(c3ccccc3)c3ccccc32)C(=O)c2ccccc21`: the GI50 in the assay on BT-549 was > 100 µM (inactive).

For `O=C(O)CCC(C(=O)O)N1C(=O)C2C3CCC(C3)C2C1=O` (configuration not stated), the GI50 with BT-549 and with T47D was > 100 µM (inactive) each time.

As to `COc1ccc(N2C(=O)CC(C3CC(C(C)(C)C)CCC3=O)C2=O)cc1` (configuration not stated), the GI50 in the assay on BT-549 and in the assay on T47D was > 100 µM (inactive) each time.

With `Cc1ccc(-c2nc3n(c2/C=N\N=C(N)N)CCS3)cc1`, the GI50 in the assay on T47D was 13.2 µM (inactive).

As to `Nc1cc(N2CCOCC2)nc(=O)n1-c1ccc(Cl)cc1`, the GI50 in the assay with BT-549 and in the assay on T47D was > 100 µM (inactive) in each case.

For `CC(C)N(CC(=O)O)CC(=O)O`, the GI50 in the assay on BT-549 and with T47D was > 100 µM (inactive) in each case.

As for `Cc1ccc(NC(=O)CC2SC(Nc3ccc(Cl)cc3)=NC2=O)cc1C` (configuration not stated), the GI50 with SNB-78 is 21.1 µM (inactive); with HOP-18, 18.5 µM (inactive); in the assay on KM-20L2, 19.1 µM (inactive); in the assay with M19-MEL, 17.7 µM (inactive); in the assay on DMS-114, 21 µM (inactive).

In the case of `CSc1ncnc2c1cnn2CCCCO`, the GI50 in the assay with BT-549 and in the assay with T47D was > 100 µM (inactive) throughout.

As for `CC(C)=CCN1CC(C)C(=O)Nc2ccccc21` (configuration not stated), the GI50 in the assay with BT-549 and in the assay on T47D was > 100 µM (inactive) each time.

On to `CCOC(=O)CCSc1nc2ccc(I)cc2c(=O)n1Cc1ccccc1`, for which the GI50 was 35.6 µM (inactive) in the assay with BT-549 and 26.9 µM (inactive) in the assay with T47D.

`CC(=O)Nc1ccc2cc(C#N)c(=O)[nH]c2n1`: the GI50 with BT-549 and in the assay on T47D was > 100 µM (inactive) each time.

With `O=C1/C(=N\NC(=S)Nc2ccc(Cl)cc2)c2cc([N+](=O)[O-])ccc2N1CN1CCOCC1`, the GI50 with T47D is 4.37 µM (inactive).

For `N#CSc1[nH]cnc1C(N)=O`, the GI50 with BT-549 is > 80.7 µM (inactive); with T47D, > 75.5 µM (inactive).

Take `Oc1ccc(CCNCc2cc3c(cc2Br)OCO3)cc1`: the GI50 was 92.5 µM (inactive) in the assay on BT-549 and 41.4 µM (inactive) in the assay with T47D.

Turning to `COC(=O)C(=O)C1(CCC(C)=O)c2ccccc2-c2c(C)ccc(C)c21` (configuration not stated), the GI50 with SNB-78 was 19 µM (inactive); in the assay with HOP-18, 56.4 µM (inactive); in the assay on KM-20L2, 58.3 µM (inactive); with M19-MEL, 64 µM (inactive); in the assay on DMS-114, 33.7 µM (inactive).

`c1ccc(CSc2ccccc2CN2CCN(Cc3ccccc3SCc3ccccc3)CCN(Cc3ccccc3SCc3ccccc3)CC2)cc1`: the figures for the GI50 in the assay on BT-549 and in the assay with T47D were 1.87 µM (inactive) and 1.43 µM (inactive), respectively.

As for `CC(=O)OCC(OC(C)=O)C1C[C@H]2O[C@@H]3[C@H](C[C@H]2O1)O[C@@]1(C[C@@H]3C)C[C@H](C)[C@@H]2O[C@]3(C[C@@H]2O1)C[C@H]1O[C@H]2[C@H](C)[C@H]4OC(=O)CC5CC[C@H]6OC7[C@H]8O[C@]9(CC[C@H]%10CC(O)(CO)[C@H](CC[C@H]%11C[C@@H](C)C(O)(CO)C(C[C@@H]4O[C@H]2C[C@H]1O3)O%11)O%10)CC8O[C@@H]7[C@@H](O9)[C@H]6O5` (some centres not stated), the GI50 in the assay on BT-549 is 0.00185 µM (active).

In the case of `COc1ccc(Cn2c(=O)c(OS(=O)(=O)C(F)(F)F)c(C)c3cc4ccccc4cc32)cc1`, the GI50 in the assay on BT-549 and with T47D was > 100 µM (inactive) throughout.

As to `NC1(c2cc3ccccc3s2)CCCCCC1`, the GI50 in the assay with BT-549 was 17.7 µM (inactive).

Take `O=C1CC(C(OCc2ccccc2)C(OCc2ccccc2)C(OCc2ccccc2)C(COCc2ccccc2)OCc2ccccc2)CC(=O)N1` (configuration not stated): in the assay on BT-549, the GI50 is > 100 µM (inactive).

On to `CC(=O)OCC1OC(n2c(C)c(/N=N/c3ccccc3)c(C)c(C#N)c2=S)C(OC(C)=O)C(OC(C)=O)C1OC(C)=O` (configuration not stated), for which the GI50 in the assay on BT-549 is 49.3 µM (inactive); in the assay with T47D, > 100 µM (inactive).

Turning to `COc1ccc(/C=C2/S/C(=N\c3ccccc3)N(NC(=O)Cc3ccccc3)C2=O)c(OC)c1`, in the assay with T47D, the GI50 is 43.9 µM (inactive).

As for `COc1ccc(C2=Nn3c(C)nnc3S/C2=C\c2ccc(-c3ccc([N+](=O)[O-])cc3)o2)cc1`, the values for the GI50 in the assay on BT-549 and with T47D were 5.86 µM (inactive) and 4.88 µM (inactive), respectively.

As for `CNC(=O)CNC(=O)C(NC(=O)CNC(=O)C1CCCN1C(=O)C(C)NC(=O)C(NC(C)=O)C(C)C)C(C)C` (configuration not stated) (Ac-VAPGVG-NHMe; configuration not given here), the GI50 in the assay with T47D was > 100 µM (inactive).

For the molecule `CC(C)(C)OC(=O)NC12C3C4C1C1C2C3C41NC(=O)OC(C)(C)C` (configuration not stated), the GI50 with BT-549 was 42.6 µM (inactive); in the assay on T47D it was 27.3 µM (inactive).

As for `O=S(=O)(c1ccccc1)[C@H]1[C@@H]2O[C@@H]2C[C@@H]1O`, the GI50 with BT-549 and in the assay on T47D was > 100 µM (inactive) throughout.

On to `COc1ccc(C(=O)/C=C/c2cc(O)c(O)cc2F)c(OC)c1`, for which the GI50 in the assay with BT-549 was 6.52 µM (inactive); in the assay on T47D it was 4.05 µM (inactive).

Turning to `CC(=O)OCC1OC(n2c(N)c(C#N)c(-c3cccc(Cl)c3)c(C#N)c2=S)C(OC(C)=O)C(OC(C)=O)C1OC(C)=O` (configuration not stated), the results for the GI50 in the assay with BT-549 and in the assay on T47D were 20.7 µM (inactive) and 18.9 µM (inactive), respectively.

Take `N=c1oc2ccc3ccccc3c2cc1C(N)=O`: the results for the GI50 with BT-549 and with T47D were 89.7 µM (inactive) and 22.6 µM (inactive), respectively.

Take `CN(C)c1ccc(C(=C2C=CC(=[N+](C)C)C=C2)c2c(O)c(S(=O)(=O)[O-])cc3cc(S(=O)(=O)O)ccc23)cc1`: the GI50 with BT-549 and in the assay with T47D was > 100 µM (inactive) in each case.

For `CC(C)N(C(=O)C12C3C4C1C1C2C3C41C(O)C(C)(C)C)C(C)C` (configuration not stated), the GI50 with SNB-78, with XF498, with KM-20L2, in the assay with M19-MEL and in the assay with DMS-114 was > 50 µM (inactive) each time.

On to `CNC(=O)CNC(=O)C(NC(=O)CNC(=O)C1CCCN1C(=O)C(C)NC(=O)C(NC(=O)OC(C)(C)C)C(C)C)C(C)C` (configuration not stated) (Boc-VAPGVG-NHMe; configuration not given here), for which the GI50 in the assay on T47D was > 100 µM (inactive).

Consider `COC(=O)C1CC2C=CC=CC(=O)C2(C)C1` (configuration not stated), for which the GI50 was 30.7 µM (inactive) with SNB-78, > 100 µM (inactive) in the assay on KM-20L2, 55.5 µM (inactive) with M19-MEL and 40.4 µM (inactive) in the assay with DMS-114.

Regarding `Cc1cc([C@H](C#N)c2nc3ccccc3s2)nc(Cl)n1`, the GI50 was 3.94 µM (inactive) in the assay with BT-549 and 2.92 µM (inactive) in the assay with T47D.

Take `O=C1Oc2ccccc2C(=O)/C1=C/N1C(=O)CNC1=S`: the GI50 in the assay on BT-549 and in the assay with T47D was > 100 µM (inactive) in each case.

`CC[N+](CC)(CC)Cc1cc2ccccc2n1C(=O)OC`: the GI50 with XF498, with KM-20L2, with M19-MEL and with DMS-114 was > 100 µM (inactive) in each case.

The record behind these values is ChEMBL document CHEMBL1201862, “PubChem BioAssay data set” (2004).
